Reference: PubChem BioAssay (NCI)
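Tested at 5 concentrations; 48 h exposure; 96-well plates; endpoints linearly interpolated, else capped at highest concentration. Abbreviation: GI50, concentration required for 50% inhibition of growth. TGI: concentration producing complete growth inhibition.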

Assays:
Test in all cases: growth of human tumour cells (NCI), 48 h
TK-10 renal = tested on: TK-10 renal
K-562 leukemia = tested on: K-562 leukemia
SW-620 colon = tested on: SW-620 colon
OVCAR-4 ovarian = tested on: OVCAR-4 ovarian
SF-295 CNS = tested on: SF-295 CNS
MDA-MB-231 breast = tested on: MDA-MB-231 breast
SN12C renal = tested on: SN12C renal
CAKI-1 renal = tested on: CAKI-1 renal
UACC-257 melanoma = tested on: UACC-257 melanoma
KM12 colon = tested on: KM12 colon
OVCAR-8 ovarian = tested on: OVCAR-8 ovarian
U251 CNS = tested on: U251 CNS
OVCAR-5 ovarian = tested on: OVCAR-5 ovarian
A549 NSCLC = tested on: A549 NSCLC
786-0 renal = tested on: 786-0 renal
HS 578T breast = tested on: HS 578T breast
MALME-3M melanoma = tested on: MALME-3M melanoma
M14 melanoma = tested on: M14 melanoma
RPMI-8226 leukemia = tested on: RPMI-8226 leukemia
IGROV1 ovarian = tested on: IGROV1 ovarian
HT29 colon = tested on: HT29 colon
HCT-15 colon = tested on: HCT-15 colon
MDA-MB-435 = tested on: MDA-MB-435
MOLT-4 leukemia = tested on: MOLT-4 leukemia
UACC-62 melanoma = tested on: UACC-62 melanoma
NCI/ADR-RES ovarian = tested on: NCI/ADR-RES ovarian
LOX IMVI melanoma = tested on: LOX IMVI melanoma
HOP-92 NSCLC = tested on: HOP-92 NSCLC
UO-31 renal = tested on: UO-31 renal
HCT-116 colon = tested on: HCT-116 colon
SNB-19 CNS = tested on: SNB-19 CNS
EKVX NSCLC = tested on: EKVX NSCLC
SK-MEL-5 melanoma = tested on: SK-MEL-5 melanoma
NCI-H23 lung = tested on: NCI-H23 lung
SR leukemia = tested on: SR leukemia
DU-145 prostate = tested on: DU-145 prostate
BT-549 breast = tested on: BT-549 breast
T-47D breast = tested on: T-47D breast
HL-60(TB) leukemia = tested on: HL-60(TB) leukemia
NCI-H460 lung = tested on: NCI-H460 lung
SK-MEL-28 melanoma = tested on: SK-MEL-28 melanoma
PC-3 prostate = tested on: PC-3 prostate
ACHN renal = tested on: ACHN renal
NCI-H226 lung = tested on: NCI-H226 lung
CCRF-CEM leukemia = tested on: CCRF-CEM leukemia
HOP-62 NSCLC = tested on: HOP-62 NSCLC
RXF 393 renal = tested on: RXF 393 renal
SNB-75 CNS = tested on: SNB-75 CNS
SF-268 CNS = tested on: SF-268 CNS
OVCAR-3 ovarian = tested on: OVCAR-3 ovarian
COLO 205 colon = tested on: COLO 205 colon
MCF7 breast = tested on: MCF7 breast
SK-OV-3 ovarian = tested on: SK-OV-3 ovarian
SK-MEL-2 melanoma = tested on: SK-MEL-2 melanoma

SMILES: COc1ccc(/C=C\[N+](=O)[O-])cc1OC
- GI50 (TK-10 renal): 3.55 µM
- TGI (TK-10 renal): 15.7 µM
- GI50 (K-562 leukemia): 2.36 µM
- TGI (K-562 leukemia): > 100 µM
- GI50 (SW-620 colon): 1.9 µM
- TGI (SW-620 colon): 4.9 µM
- GI50 (OVCAR-4 ovarian): 14 µM
- TGI (OVCAR-4 ovarian): 27.5 µM
- GI50 (SF-295 CNS): 12.2 µM
- TGI (SF-295 CNS): 33.9 µM
- GI50 (MDA-MB-231 breast): 3.73 µM
- TGI (MDA-MB-231 breast): 13.1 µM
- GI50 (SN12C renal): 3.06 µM
- TGI (SN12C renal): 13.2 µM
- GI50 (CAKI-1 renal): 1.8 µM
- TGI (CAKI-1 renal): 4.84 µM
- GI50 (UACC-257 melanoma): 0.919 µM
- TGI (UACC-257 melanoma): 3.38 µM
- GI50 (KM12 colon): 2.73 µM
- TGI (KM12 colon): 7.54 µM
- GI50 (OVCAR-8 ovarian): 2.84 µM
- TGI (OVCAR-8 ovarian): 11.1 µM
- GI50 (U251 CNS): 1.5 µM
- TGI (U251 CNS): 4.72 µM
- GI50 (OVCAR-5 ovarian): 4.51 µM
- TGI (OVCAR-5 ovarian): 19.3 µM
- GI50 (A549 NSCLC): 1.94 µM
- TGI (A549 NSCLC): 4.97 µM
- GI50 (786-0 renal): 1.9 µM
- TGI (786-0 renal): 3.87 µM
- GI50 (HS 578T breast): 2.92 µM
- TGI (HS 578T breast): 24.7 µM
- GI50 (MALME-3M melanoma): 22.6 µM
- TGI (MALME-3M melanoma): 43.5 µM
- GI50 (M14 melanoma): 1.82 µM
- TGI (M14 melanoma): 4.18 µM
- GI50 (RPMI-8226 leukemia): 2.06 µM
- TGI (RPMI-8226 leukemia): 5.28 µM
- GI50 (IGROV1 ovarian): 1.82 µM
- TGI (IGROV1 ovarian): 4.46 µM
- GI50 (HT29 colon): 1.87 µM
- TGI (HT29 colon): 5.87 µM
- GI50 (HCT-15 colon): 2.19 µM
- TGI (HCT-15 colon): 6.45 µM
- GI50 (MDA-MB-435): 2.46 µM
- TGI (MDA-MB-435): 9.38 µM
- GI50 (MOLT-4 leukemia): 4.1 µM
- TGI (MOLT-4 leukemia): 38 µM
- GI50 (UACC-62 melanoma): 2.62 µM
- TGI (UACC-62 melanoma): 12.3 µM
- GI50 (NCI/ADR-RES ovarian): 7.08 µM
- TGI (NCI/ADR-RES ovarian): 36.8 µM
- GI50 (LOX IMVI melanoma): 1.66 µM
- TGI (LOX IMVI melanoma): 3.45 µM
- GI50 (HOP-92 NSCLC): 12.4 µM
- TGI (HOP-92 NSCLC): 48.4 µM
- GI50 (UO-31 renal): 1.85 µM
- TGI (UO-31 renal): 3.87 µM
- GI50 (HCT-116 colon): 1.37 µM
- TGI (HCT-116 colon): 2.85 µM
- GI50 (SNB-19 CNS): 9.75 µM
- TGI (SNB-19 CNS): 25.1 µM
- GI50 (EKVX NSCLC): 15.6 µM
- TGI (EKVX NSCLC): 38.1 µM
- GI50 (SK-MEL-5 melanoma): 3.72 µM
- TGI (SK-MEL-5 melanoma): 14.4 µM
- GI50 (NCI-H23 lung): 2.24 µM
- TGI (NCI-H23 lung): 6.52 µM
- GI50 (SR leukemia): 2.38 µM
- TGI (SR leukemia): 7.99 µM
- GI50 (DU-145 prostate): 3.1 µM
- TGI (DU-145 prostate): 11.9 µM
- GI50 (BT-549 breast): 2.26 µM
- TGI (BT-549 breast): 5.21 µM
- GI50 (T-47D breast): 7.6 µM
- TGI (T-47D breast): 38.2 µM
- GI50 (HL-60(TB) leukemia): 2.94 µM
- TGI (HL-60(TB) leukemia): 7.79 µM
- GI50 (NCI-H460 lung): 4.99 µM
- TGI (NCI-H460 lung): 21.2 µM
- GI50 (SK-MEL-28 melanoma): 3.53 µM
- TGI (SK-MEL-28 melanoma): 13 µM
- GI50 (PC-3 prostate): 3.01 µM
- TGI (PC-3 prostate): 8.85 µM
- GI50 (ACHN renal): 3.68 µM
- TGI (ACHN renal): 13.9 µM
- GI50 (NCI-H226 lung): 22.9 µM
- TGI (NCI-H226 lung): 88.8 µM
- GI50 (CCRF-CEM leukemia): 3.2 µM
- TGI (CCRF-CEM leukemia): 22.7 µM
- GI50 (HOP-62 NSCLC): 12 µM
- TGI (HOP-62 NSCLC): 29.2 µM
- GI50 (RXF 393 renal): 1.81 µM
- TGI (RXF 393 renal): 3.43 µM
- GI50 (SNB-75 CNS): 10.6 µM
- TGI (SNB-75 CNS): 29.8 µM
- GI50 (SF-268 CNS): 5.88 µM
- TGI (SF-268 CNS): 20.5 µM
- GI50 (OVCAR-3 ovarian): 3 µM
- TGI (OVCAR-3 ovarian): 8.73 µM
- GI50 (COLO 205 colon): 5.1 µM
- TGI (COLO 205 colon): 18 µM
- GI50 (MCF7 breast): 3.05 µM
- TGI (MCF7 breast): 15.9 µM
- GI50 (SK-OV-3 ovarian): 13.4 µM
- TGI (SK-OV-3 ovarian): 26.2 µM
- GI50 (SK-MEL-2 melanoma): 2.64 µM
- TGI (SK-MEL-2 melanoma): 7.39 µM
